{"source": "patent US20110142961A1", "about": "“METHODS AND REAGENTS FOR PREDICTING CLINICAL OUTCOME AND CUSTOMIZING CHEMOTHERAPY IN LUNG CANCER PATIENTS” (Pangaea Biotech S.A., priority 2008, published 2011)", "test_system": "metastatic NSCLC (patients with lung adenocarcinoma or large-cell carcinoma)", "assay": "Customized treatment of metastatic NSCLC according to EGFR mutations and BRCA1 mRNA levels: survival", "type": "in vivo", "settings": "median follow-up of 10 months", "method": "Background: A study was carried out wherein treatment of metastatic NSCLC was customized according to the presence of EGFR mutations and BRCA1 mRNA levels.\nMethods: 93 patients with lung adenocarcinoma or large-cell carcinoma were screened for EGFR Δ746-750 deletion and L858R mutation and BRCA1 mRNA expression. 15 patients with the L858R mutation in the EGFR gene received erlotinib; 78 patients without the L858R mutation in the EGFR gene received chemotherapy according to BRCA1 levels (low: gemcitabine/cisplatin; intermediate: docetaxel/cisplatin; high: docetaxel alone). In addition, Abraxas and RAP80 mRNA expression were examined in 60/78 patients without the L858R mutation. The features of the patients are collected in Tables I and II."}
{"molecule": "gemcitabine/cisplatin", "values": [{"measurement": "median survival", "setting": "32 patients with low BRCA1 levels (received gemcitabine/cisplatin)", "result": "not reached"}]}
{"molecule": "CC(=O)O[C@@]12CO[C@@H]1C[C@H](O)[C@@]1(C)C(=O)[C@H](O)C3=C(C)[C@@H](OC(=O)[C@H](O)[C@@H](NC(=O)OC(C)(C)C)c4ccccc4)C[C@@](O)([C@@H](OC(=O)c4ccccc4)[C@H]21)C3(C)C", "note": "[docetaxel]", "values": [{"measurement": "median survival", "setting": "12 patients with high BRCA1 levels (received docetaxel alone)", "result": 11, "unit": "months"}]}
{"molecule": "C#Cc1cccc(Nc2ncnc3cc(OCCOC)c(OCCOC)cc23)c1", "note": "[erlotinib]", "values": [{"measurement": "median survival", "setting": "11 patients with EGFR mutations (received erlotinib)", "result": "not reached"}]}
{"molecule": "docetaxel/cisplatin", "values": [{"measurement": "median survival", "setting": "34 patients with intermediate BRCA1 levels (received docetaxel/cisplatin)", "result": 9, "unit": "months"}]}
